ChEMBL document CHEMBL3352619, “Design, synthesis and biological evaluation of novel 6,7-disubstituted-4-phenoxyquinoline derivatives bearing 4-oxo-3,4-dihydrophthalazine-1-carboxamide moieties as c-Met kinase inhibitors” (Bioorg Med Chem, 2014)

Legend:
[1] = Cytotoxicity against human H460 cells after 72 hrs by MTT assay; settings: NCI-H460, 72 h
MDA-MB-231 = assay: cells; settings: Homo sapiens, MDA-MB-231, 72 h
Description: Cytotoxicity against human MDA-MB-231 cells after 72 hrs by MTT assay

HT-29 = assay: Cytotoxicity against human HT-29 cells after 72 hrs by MTT assay; settings: HT-29, 72 h
[2] = Cytotoxicity against human MKN45 cells after 72 hrs by MTT assay; settings: MKN-45, 72 h
[3] = biological target: Epidermal growth factor receptor (Homo sapiens, UniProt P00533); assay: Inhibition of EGFR (unknown origin) after 30 mins using poly (Glu,Tyr)4:1 substrate
Sequence of Epidermal growth factor receptor (P00533 whole entry): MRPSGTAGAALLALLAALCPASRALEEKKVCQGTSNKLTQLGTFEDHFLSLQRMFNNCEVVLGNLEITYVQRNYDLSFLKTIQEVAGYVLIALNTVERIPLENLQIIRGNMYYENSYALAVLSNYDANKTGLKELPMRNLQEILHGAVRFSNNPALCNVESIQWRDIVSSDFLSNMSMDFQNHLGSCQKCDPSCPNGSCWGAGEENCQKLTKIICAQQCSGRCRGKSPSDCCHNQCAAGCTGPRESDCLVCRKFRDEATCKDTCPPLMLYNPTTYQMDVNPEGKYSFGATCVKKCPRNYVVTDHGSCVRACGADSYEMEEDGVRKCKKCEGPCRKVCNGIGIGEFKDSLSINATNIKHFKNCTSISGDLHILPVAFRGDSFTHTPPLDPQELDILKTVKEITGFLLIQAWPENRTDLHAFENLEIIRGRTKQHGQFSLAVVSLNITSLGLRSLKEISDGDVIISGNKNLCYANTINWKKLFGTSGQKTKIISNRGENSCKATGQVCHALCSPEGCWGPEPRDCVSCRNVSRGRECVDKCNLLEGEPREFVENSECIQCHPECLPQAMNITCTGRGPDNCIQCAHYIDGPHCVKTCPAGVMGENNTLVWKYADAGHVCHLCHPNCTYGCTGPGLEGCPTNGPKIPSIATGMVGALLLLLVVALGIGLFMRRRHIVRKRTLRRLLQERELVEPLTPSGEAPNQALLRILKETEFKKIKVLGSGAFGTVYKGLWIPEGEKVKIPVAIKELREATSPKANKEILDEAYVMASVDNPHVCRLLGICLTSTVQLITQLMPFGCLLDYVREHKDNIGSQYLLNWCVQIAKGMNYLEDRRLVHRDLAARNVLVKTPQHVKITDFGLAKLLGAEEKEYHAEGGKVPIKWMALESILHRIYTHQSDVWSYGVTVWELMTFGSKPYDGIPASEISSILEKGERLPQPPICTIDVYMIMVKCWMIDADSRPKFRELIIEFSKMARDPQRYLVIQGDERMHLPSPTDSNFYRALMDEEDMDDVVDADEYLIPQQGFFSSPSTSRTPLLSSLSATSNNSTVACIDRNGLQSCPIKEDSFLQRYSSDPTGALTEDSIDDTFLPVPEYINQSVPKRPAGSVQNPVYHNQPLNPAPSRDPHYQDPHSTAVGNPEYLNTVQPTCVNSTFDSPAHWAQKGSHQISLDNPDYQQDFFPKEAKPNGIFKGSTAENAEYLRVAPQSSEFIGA

[4] = biological target: T1, Receptor-type tyrosine-protein kinase FLT3 (Homo sapiens, UniProt P36888); assay: Inhibition of FLT3 (unknown origin) after 30 mins using poly (Glu,Tyr)4:1 substrate
T1 sequence (P36888 whole entry): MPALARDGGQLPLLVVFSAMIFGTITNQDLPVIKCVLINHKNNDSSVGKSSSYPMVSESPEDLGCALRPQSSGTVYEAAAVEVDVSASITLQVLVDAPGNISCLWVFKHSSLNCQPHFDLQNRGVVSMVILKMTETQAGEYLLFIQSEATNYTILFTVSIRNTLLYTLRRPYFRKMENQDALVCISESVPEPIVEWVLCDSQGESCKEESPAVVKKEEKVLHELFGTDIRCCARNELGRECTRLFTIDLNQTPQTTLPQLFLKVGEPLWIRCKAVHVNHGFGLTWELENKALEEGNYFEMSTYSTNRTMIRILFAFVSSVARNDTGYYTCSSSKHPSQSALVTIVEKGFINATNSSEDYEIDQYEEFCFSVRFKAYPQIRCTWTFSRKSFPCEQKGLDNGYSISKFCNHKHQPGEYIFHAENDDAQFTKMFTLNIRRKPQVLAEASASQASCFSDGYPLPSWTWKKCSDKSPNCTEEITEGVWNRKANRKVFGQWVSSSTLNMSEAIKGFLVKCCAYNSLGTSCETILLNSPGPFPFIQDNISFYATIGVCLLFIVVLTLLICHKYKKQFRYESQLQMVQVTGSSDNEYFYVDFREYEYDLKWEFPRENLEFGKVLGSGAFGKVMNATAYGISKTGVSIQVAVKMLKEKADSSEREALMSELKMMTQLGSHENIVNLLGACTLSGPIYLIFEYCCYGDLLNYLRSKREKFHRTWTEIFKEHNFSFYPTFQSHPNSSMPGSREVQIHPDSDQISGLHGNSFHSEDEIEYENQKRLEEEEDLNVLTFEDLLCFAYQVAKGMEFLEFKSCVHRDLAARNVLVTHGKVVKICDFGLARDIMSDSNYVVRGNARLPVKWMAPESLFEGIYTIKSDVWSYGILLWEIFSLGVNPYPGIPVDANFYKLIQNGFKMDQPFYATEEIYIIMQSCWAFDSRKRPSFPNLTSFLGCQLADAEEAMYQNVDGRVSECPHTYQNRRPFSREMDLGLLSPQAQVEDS

[5] = biological target: Mast/stem cell growth factor receptor Kit (Homo sapiens, UniProt P10721); assay: Inhibition of c-KIT (unknown origin) after 30 mins using poly (Glu,Tyr)4:1 substrate
Sequence of Mast/stem cell growth factor receptor Kit (P10721 whole entry): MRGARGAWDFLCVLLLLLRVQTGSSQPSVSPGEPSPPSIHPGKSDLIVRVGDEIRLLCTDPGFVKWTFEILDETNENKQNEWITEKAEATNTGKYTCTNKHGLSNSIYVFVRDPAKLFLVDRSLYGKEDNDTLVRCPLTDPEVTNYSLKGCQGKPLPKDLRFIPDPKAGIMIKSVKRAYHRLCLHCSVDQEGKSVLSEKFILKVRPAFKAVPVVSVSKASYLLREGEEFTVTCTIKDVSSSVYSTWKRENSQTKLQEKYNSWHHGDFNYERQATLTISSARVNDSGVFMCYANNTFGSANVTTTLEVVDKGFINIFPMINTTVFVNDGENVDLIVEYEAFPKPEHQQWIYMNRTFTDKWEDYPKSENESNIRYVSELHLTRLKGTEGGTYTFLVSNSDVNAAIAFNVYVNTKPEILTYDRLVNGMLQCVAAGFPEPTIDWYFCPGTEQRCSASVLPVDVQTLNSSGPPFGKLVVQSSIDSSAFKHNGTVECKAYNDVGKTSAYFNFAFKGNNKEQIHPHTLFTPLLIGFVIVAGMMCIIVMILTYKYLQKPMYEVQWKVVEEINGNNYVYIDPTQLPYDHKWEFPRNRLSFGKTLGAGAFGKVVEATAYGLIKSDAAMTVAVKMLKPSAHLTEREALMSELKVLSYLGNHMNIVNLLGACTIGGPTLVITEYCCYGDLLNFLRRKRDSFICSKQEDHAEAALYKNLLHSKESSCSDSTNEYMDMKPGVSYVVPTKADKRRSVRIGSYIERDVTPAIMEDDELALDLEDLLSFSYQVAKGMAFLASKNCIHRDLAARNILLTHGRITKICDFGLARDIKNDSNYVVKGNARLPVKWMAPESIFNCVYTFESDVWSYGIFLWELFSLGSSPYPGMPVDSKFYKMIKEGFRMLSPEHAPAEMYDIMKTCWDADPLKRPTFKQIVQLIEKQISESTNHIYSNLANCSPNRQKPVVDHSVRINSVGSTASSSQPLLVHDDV

[6] = biological target: Hepatocyte growth factor receptor (Homo sapiens, UniProt P08581); assay: Inhibition of c-Met (unknown origin) after 30 mins using poly (Glu,Tyr)4:1 substrate
Sequence of Hepatocyte growth factor receptor (P08581 whole entry): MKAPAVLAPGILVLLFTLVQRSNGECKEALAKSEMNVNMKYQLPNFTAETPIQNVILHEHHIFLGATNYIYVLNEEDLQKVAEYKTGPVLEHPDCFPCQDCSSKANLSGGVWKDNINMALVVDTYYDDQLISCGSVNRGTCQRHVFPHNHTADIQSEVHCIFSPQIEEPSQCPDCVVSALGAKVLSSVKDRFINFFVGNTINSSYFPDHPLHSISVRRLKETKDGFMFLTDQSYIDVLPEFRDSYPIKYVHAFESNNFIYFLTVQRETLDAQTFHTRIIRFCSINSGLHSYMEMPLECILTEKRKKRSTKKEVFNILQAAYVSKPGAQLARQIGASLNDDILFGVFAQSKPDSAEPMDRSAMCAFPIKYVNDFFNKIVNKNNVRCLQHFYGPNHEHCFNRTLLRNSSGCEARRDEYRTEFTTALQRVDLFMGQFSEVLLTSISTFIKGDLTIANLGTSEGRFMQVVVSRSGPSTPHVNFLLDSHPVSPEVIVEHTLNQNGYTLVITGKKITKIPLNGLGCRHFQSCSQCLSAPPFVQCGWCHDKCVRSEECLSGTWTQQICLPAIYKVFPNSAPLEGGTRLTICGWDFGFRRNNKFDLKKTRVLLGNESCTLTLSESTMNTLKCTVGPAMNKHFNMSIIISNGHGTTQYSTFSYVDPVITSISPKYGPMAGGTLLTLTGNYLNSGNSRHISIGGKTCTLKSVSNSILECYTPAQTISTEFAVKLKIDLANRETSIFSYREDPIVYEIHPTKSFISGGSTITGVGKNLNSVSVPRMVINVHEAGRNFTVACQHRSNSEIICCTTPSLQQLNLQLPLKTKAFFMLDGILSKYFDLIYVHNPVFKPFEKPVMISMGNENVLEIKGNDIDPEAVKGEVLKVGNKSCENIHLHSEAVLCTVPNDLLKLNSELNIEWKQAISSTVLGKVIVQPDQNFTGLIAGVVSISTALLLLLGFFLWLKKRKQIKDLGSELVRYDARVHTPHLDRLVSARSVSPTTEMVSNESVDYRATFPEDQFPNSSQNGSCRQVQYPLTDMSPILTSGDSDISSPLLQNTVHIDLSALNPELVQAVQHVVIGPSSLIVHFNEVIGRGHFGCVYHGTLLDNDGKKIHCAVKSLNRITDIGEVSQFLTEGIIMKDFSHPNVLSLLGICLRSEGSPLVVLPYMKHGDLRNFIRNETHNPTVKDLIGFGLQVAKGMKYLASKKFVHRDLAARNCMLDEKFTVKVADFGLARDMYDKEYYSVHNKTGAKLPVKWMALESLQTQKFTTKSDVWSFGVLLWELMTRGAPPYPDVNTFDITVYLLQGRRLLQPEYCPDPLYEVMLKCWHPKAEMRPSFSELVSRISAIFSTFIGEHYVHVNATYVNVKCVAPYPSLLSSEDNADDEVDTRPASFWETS

[7] = biological target: Platelet-derived growth factor receptor alpha (Homo sapiens, UniProt P16234); assay: Inhibition of PDGFRalpha (unknown origin) after 30 mins using poly (Glu,Tyr)4:1 substrate
[8] = biological target: Vascular endothelial growth factor receptor 2 (Homo sapiens, UniProt P35968); assay: Inhibition of VEGFR2 (unknown origin) after 30 mins using poly (Glu,Tyr)4:1 substrate
Sequence of Vascular endothelial growth factor receptor 2 (P35968 whole entry): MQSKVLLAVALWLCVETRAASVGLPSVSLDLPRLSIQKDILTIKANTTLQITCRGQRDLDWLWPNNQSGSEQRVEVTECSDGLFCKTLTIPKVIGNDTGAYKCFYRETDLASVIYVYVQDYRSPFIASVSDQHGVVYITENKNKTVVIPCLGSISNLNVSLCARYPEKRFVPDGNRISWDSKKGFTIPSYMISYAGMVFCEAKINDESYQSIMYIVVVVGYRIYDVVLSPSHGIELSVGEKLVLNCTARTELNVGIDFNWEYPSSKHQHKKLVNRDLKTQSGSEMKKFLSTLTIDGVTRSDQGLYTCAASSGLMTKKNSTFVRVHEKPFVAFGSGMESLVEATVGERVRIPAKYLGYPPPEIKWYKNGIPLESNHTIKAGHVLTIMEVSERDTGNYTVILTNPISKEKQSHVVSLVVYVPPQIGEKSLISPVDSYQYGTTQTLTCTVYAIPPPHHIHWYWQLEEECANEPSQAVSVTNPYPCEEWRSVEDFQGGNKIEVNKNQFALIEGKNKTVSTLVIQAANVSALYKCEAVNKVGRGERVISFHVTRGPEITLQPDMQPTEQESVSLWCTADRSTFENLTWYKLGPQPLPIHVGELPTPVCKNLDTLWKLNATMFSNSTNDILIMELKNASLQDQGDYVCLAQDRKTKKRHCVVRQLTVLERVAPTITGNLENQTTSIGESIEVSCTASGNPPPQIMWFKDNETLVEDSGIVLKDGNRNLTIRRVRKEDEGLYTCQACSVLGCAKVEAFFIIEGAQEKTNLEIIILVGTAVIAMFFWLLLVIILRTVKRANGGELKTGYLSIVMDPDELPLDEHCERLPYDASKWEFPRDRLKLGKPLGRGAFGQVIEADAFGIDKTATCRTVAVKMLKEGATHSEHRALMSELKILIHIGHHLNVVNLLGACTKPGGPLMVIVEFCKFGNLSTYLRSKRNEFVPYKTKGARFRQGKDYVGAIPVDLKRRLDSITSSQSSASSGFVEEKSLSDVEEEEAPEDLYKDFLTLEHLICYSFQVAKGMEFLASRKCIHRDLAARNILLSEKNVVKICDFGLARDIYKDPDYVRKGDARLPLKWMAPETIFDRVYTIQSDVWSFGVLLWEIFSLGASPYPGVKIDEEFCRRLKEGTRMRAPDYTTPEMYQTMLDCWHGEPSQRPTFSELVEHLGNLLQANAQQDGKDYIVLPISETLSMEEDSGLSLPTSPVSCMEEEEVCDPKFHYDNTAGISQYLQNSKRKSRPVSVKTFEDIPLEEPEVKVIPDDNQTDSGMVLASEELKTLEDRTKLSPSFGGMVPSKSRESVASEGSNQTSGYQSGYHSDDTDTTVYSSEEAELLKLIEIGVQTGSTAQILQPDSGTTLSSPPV

SMILES	IC50 [1]	IC50 (MDA-MB-231)	IC50 (HT-29)	IC50 [2]	IC50 [3]	IC50 [4]	IC50 [5]	IC50 [6]	IC50 [7]	IC50 [8]
COc1cc2c(Oc3ccc(NC(=O)c4nn(-c5ccccc5F)c(=O)c5ccccc45)cc3F)ccnc2cc1OCCCN1CCN(C)CC1	230 nM	1050 nM	480 nM	210 nM	–	–	–	–	–	–
COc1cc2c(Oc3ccc(NC(=O)c4nn(-c5ccccc5)c(=O)c5ccccc45)cc3F)ccnc2cc1OCCCN1CCOCC1	580 nM	1230 nM	1380 nM	430 nM	–	–	–	–	–	–
COc1cc2c(Oc3ccc(NC(=O)c4nn(-c5ccc(F)cc5)c(=O)c5ccccc45)cc3F)ccnc2cc1OCCCN1CCOCC1	100 nM	670 nM	260 nM	90 nM	–	–	–	–	–	–
COc1cc2c(Oc3ccc(NC(=O)c4nn(-c5ccccc5F)c(=O)c5ccccc45)cc3F)ccnc2cc1OCCCN1CCOCC1	190 nM	700 nM	470 nM	150 nM	–	–	–	–	–	–
COc1cc2c(Oc3ccc(NC(=O)c4nn(-c5ccc(Br)cc5)c(=O)c5ccccc45)cc3F)ccnc2cc1OCCCN1CCOCC1	290 nM	960 nM	710 nM	340 nM	–	–	–	–	–	–
COc1cc2c(Oc3ccc(NC(=O)c4nn(-c5ccc([N+](=O)[O-])cc5)c(=O)c5ccccc45)cc3F)ccnc2cc1OCCCN1CCOCC1	1890 nM	3480 nM	2520 nM	1940 nM	–	–	–	–	–	–
COc1ccc(-n2nc(C(=O)Nc3ccc(Oc4ccnc5cc(OCCCN6CCOCC6)c(OC)cc45)c(F)c3)c3ccccc3c2=O)cc1	1240 nM	3980 nM	3360 nM	1620 nM	–	–	–	–	–	–
COc1cc2c(Oc3ccc(NC(=O)c4nn(-c5ccccc5)c(=O)c5ccccc45)cc3F)ccnc2cc1OCCCN1CCCC1	–	–	980 nM	530 nM	–	–	–	–	–	–
COc1cc2c(Oc3ccc(NC(=O)c4nn(-c5ccc(F)cc5)c(=O)c5ccccc45)cc3F)ccnc2cc1OCCCN1CCCC1	55 nM	430 nM	130 nM	71 nM	> 10000 nM	3.49 nM	2.17 nM	1.63 nM	15.7 nM	70.4 nM
COc1cc2c(Oc3ccc(NC(=O)c4nn(-c5cccc(F)c5)c(=O)c5ccccc45)cc3F)ccnc2cc1OCCCN1CCCC1	–	–	460 nM	160 nM	–	–	–	–	–	–
COc1cc2c(Oc3ccc(NC(=O)c4nn(-c5ccccc5F)c(=O)c5ccccc45)cc3F)ccnc2cc1OCCCN1CCCC1	–	–	400 nM	140 nM	–	–	–	–	–	–
COc1cc2c(Oc3ccc(NC(=O)c4nn(-c5ccc(Br)cc5)c(=O)c5ccccc45)cc3F)ccnc2cc1OCCCN1CCCC1	180 nM	1160 nM	670 nM	230 nM	–	–	–	–	–	–
COc1cc2c(Oc3ccc(NC(=O)c4nn(-c5ccccc5Br)c(=O)c5ccccc45)cc3F)ccnc2cc1OCCCN1CCCC1	320 nM	1020 nM	850 nM	410 nM	–	–	–	–	–	–
COc1cc2c(Oc3ccc(NC(=O)c4nn(-c5ccc([N+](=O)[O-])cc5)c(=O)c5ccccc45)cc3F)ccnc2cc1OCCCN1CCCC1	1240 nM	2980 nM	1760 nM	1620 nM	–	–	–	–	–	–
COc1ccc(-n2nc(C(=O)Nc3ccc(Oc4ccnc5cc(OCCCN6CCCC6)c(OC)cc45)c(F)c3)c3ccccc3c2=O)cc1	1650 nM	3450 nM	2360 nM	1320 nM	–	–	–	–	–	–
COc1cc2c(Oc3ccc(NC(=O)c4nn(-c5ccccc5)c(=O)c5ccccc45)cc3F)ccnc2cc1OCCCN1CCN(C)CC1	450 nM	1580 nM	1140 nM	620 nM	–	–	–	–	–	–
COc1cc2c(Oc3ccc(NC(=O)c4nn(-c5ccc(F)cc5)c(=O)c5ccccc45)cc3F)ccnc2cc1OCCCN1CCN(C)CC1	–	–	320 nM	150 nM	–	–	–	–	–	–
COc1cc2c(Oc3ccc(NC(=O)c4nn(-c5ccc(Br)cc5)c(=O)c5ccccc45)cc3F)ccnc2cc1OCCCN1CCN(C)CC1	250 nM	1370 nM	850 nM	350 nM	–	–	–	–	–	–

SMILES	IC50 [1]	IC50 (MDA-MB-231)	IC50 (HT-29)	IC50 [2]	IC50 [3]	IC50 [4]	IC50 [5]	IC50 [6]	IC50 [7]	IC50 [8]
COc1cc2c(Oc3ccc(NC(=O)c4nn(-c5ccccc5Br)c(=O)c5ccccc45)cc3F)ccnc2cc1OCCCN1CCN(C)CC1	290 nM	1680 nM	1190 nM	400 nM	–	–	–	–	–	–
COc1cc2c(Oc3ccc(NC(=O)c4nn(-c5ccc([N+](=O)[O-])cc5)c(=O)c5ccccc45)cc3F)ccnc2cc1OCCCN1CCN(C)CC1	980 nM	3490 nM	2560 nM	1320 nM	–	–	–	–	–	–
COc1ccc(-n2nc(C(=O)Nc3ccc(Oc4ccnc5cc(OCCCN6CCN(C)CC6)c(OC)cc45)c(F)c3)c3ccccc3c2=O)cc1	1110 nM	3980 nM	3700 nM	1320 nM	–	–	–	–	–	–
COc1cc2c(Oc3ccc(NC(=O)c4nn(-c5ccccc5)c(=O)c5ccccc45)cc3F)ccnc2cc1OCCCN1CCCCC1	650 nM	1880 nM	1310 nM	590 nM	–	–	–	–	–	–
COc1cc2c(Oc3ccc(NC(=O)c4nn(-c5ccc(F)cc5)c(=O)c5ccccc45)cc3F)ccnc2cc1OCCCN1CCCCC1	–	–	290 nM	180 nM	–	–	–	–	–	–
COc1cc2c(Oc3ccc(NC(=O)c4nn(-c5ccccc5F)c(=O)c5ccccc45)cc3F)ccnc2cc1OCCCN1CCCCC1	160 nM	910 nM	630 nM	350 nM	–	–	–	–	–	–
COc1cc2c(Oc3ccc(NC(=O)c4nn(-c5ccc(Br)cc5)c(=O)c5ccccc45)cc3F)ccnc2cc1OCCCN1CCCCC1	410 nM	1130 nM	770 nM	500 nM	–	–	–	–	–	–
COc1cc2c(Oc3ccc(NC(=O)c4nn(-c5ccc([N+](=O)[O-])cc5)c(=O)c5ccccc45)cc3F)ccnc2cc1OCCCN1CCCCC1	1300 nM	2620 nM	2170 nM	1140 nM	–	–	–	–	–	–
COc1ccc(-n2nc(C(=O)Nc3ccc(Oc4ccnc5cc(OCCCN6CCCCC6)c(OC)cc45)c(F)c3)c3ccccc3c2=O)cc1	840 nM	2010 nM	1450 nM	950 nM	–	–	–	–	–	–
COc1cc2c(Oc3ccc(NC(=O)c4nn(-c5ccccc5)c(=O)c5ccccc45)cc3F)ccnc2cc1OCCCN1CCC(C)CC1	550 nM	1480 nM	1040 nM	580 nM	–	–	–	–	–	–
COc1cc2c(Oc3ccc(NC(=O)c4nn(-c5ccc(F)cc5)c(=O)c5ccccc45)cc3F)ccnc2cc1OCCCN1CCC(C)CC1	110 nM	660 nM	330 nM	130 nM	–	–	–	–	–	–
COc1cc2c(Oc3ccc(NC(=O)c4nn(-c5cccc(F)c5)c(=O)c5ccccc45)cc3F)ccnc2cc1OCCCN1CCC(C)CC1	190 nM	860 nM	500 nM	220 nM	–	–	–	–	–	–
COc1cc2c(Oc3ccc(NC(=O)c4nn(-c5ccccc5F)c(=O)c5ccccc45)cc3F)ccnc2cc1OCCCN1CCC(C)CC1	200 nM	670 nM	510 nM	260 nM	–	–	–	–	–	–
COc1cc2c(Oc3ccc(NC(=O)c4nn(-c5ccc(Br)cc5)c(=O)c5ccccc45)cc3F)ccnc2cc1OCCCN1CCC(C)CC1	350 nM	1160 nM	920 nM	330 nM	–	–	–	–	–	–
COc1cc2c(Oc3ccc(NC(=O)c4nn(-c5ccccc5Br)c(=O)c5ccccc45)cc3F)ccnc2cc1OCCCN1CCC(C)CC1	390 nM	1240 nM	950 nM	510 nM	–	–	–	–	–	–
COc1cc2c(Oc3ccc(NC(=O)c4nn(-c5ccc([N+](=O)[O-])cc5)c(=O)c5ccccc45)cc3F)ccnc2cc1OCCCN1CCC(C)CC1	1340 nM	4010 nM	2450 nM	1150 nM	–	–	–	–	–	–
COc1cc2c(Oc3ccc(NC(=O)c4nn(-c5ccccc5Br)c(=O)c5ccccc45)cc3F)ccnc2cc1OCCCN1CCOCC1	370 nM	1560 nM	680 nM	450 nM	–	–	–	–	–	–
